The data set has as its system patients chronically infected with HBV. In words: 4-week clinical treatment combining weekly sub-cutaneous pegylated IFNα2a (PEG-IFN) with daily oral EYP001a or placebo: treatment emergent adverse events. The conditions noted are these: compared with Placebo + IFN; significant differences (Table 2).

`O=C(O)c1cc2c(Cl)c(N3CCN(S(=O)(=O)c4c(Cl)cccc4Cl)CC3)ccc2o1` [EYP001a]: the “frequency of flu-like AE when IFN treatment was combined with EYP001” value was “lower up to three times less”.

Values taken from patent US20220241376A1, “METHOD FOR DECREASING ADVERSE-EFFECTS OF INTERFERON” (ENYO PHARMA, priority 2019, published 2022).
